Laboratory results published in US7485641B2, “Substituted 3-amino-pyrrolidino-4-lactams” (Pfizer, Inc., priority 2006, dated 2009).
Counter-ions that a name gives are not always drawn.

target: T1, DPP-IV (Homo sapiens, UniProt P27487); assay: In vitro assay for dipeptidyl peptidase inhibition; format: biochemical; details: at 300 nM; n-value given in brackets
T1 construct: purchased Enzyme Systems Products SPE-01
T1 sequence (P27487 whole entry, species assumed): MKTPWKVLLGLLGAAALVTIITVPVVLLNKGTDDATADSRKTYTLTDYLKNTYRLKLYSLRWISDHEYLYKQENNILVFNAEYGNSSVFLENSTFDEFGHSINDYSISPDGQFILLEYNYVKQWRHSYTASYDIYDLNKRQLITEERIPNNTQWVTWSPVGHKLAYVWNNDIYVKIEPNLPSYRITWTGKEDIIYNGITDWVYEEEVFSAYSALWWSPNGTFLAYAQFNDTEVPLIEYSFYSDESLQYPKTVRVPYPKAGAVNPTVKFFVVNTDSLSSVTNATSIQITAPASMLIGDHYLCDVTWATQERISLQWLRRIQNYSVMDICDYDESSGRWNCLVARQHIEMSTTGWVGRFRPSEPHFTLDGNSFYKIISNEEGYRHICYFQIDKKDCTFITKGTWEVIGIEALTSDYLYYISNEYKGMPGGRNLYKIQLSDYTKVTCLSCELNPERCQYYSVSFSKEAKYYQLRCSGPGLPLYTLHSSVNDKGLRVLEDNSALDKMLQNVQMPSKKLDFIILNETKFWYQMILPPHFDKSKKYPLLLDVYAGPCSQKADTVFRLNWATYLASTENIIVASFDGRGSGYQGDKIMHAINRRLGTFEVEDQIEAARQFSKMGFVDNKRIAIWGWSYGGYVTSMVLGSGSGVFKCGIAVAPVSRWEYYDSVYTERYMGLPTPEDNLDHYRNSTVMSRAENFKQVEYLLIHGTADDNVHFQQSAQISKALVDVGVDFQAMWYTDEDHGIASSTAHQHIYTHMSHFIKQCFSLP

Row | Compound | DPP-IV Percent Inhibition at 300 nM
1 | CC(Oc1cc(N2C[C@H](N)[C@@H](N3CCCCC3=O)C2)ncn1)C(F)(F)F.O=C(O)C(F)(F)F (stereo partly drawn) [Example 93, 1-((3S,4S)-4-Amino-1-(6-(1,1,1-trifluoropropan-2-yloxy)pyrimidin-4-yl)pyrrolidin-3-yl)piperidin-2-onetrifluoroacetate] | 13.8%(4)

same assay, conditions: at 300 nM; n-value given in brackets; read-out: DPP-IV Percent Inhibition at 300 nM

Row | Compound | inhibition at 0.3 µM [%]
2 | N[C@H]1CN(c2cc(OC3CCCC3)ncn2)C[C@@H]1N1CCCCC1=O [Example 91, 1-((3S,4S)-4-Amino-1-(6-(cyclopentyloxy)pyrimidin-4-yl)pyrrolidin-3-yl)piperidin-2-onetrifluoroacetate] | 32.2
3 | N[C@H]1CN(c2cc(OCC(F)(F)F)ncn2)C[C@@H]1N1CCCCC1=O [Example 92, 1-((3S,4S)-4-Amino-1-(6-(2,2,2-trifluoroethoxy)pyrimidin-4-yl)pyrrolidin-3-yl)piperidin-2-one trifluoroacetate] | 28.9
4 | N[C@H]1CN(c2cc(OCC(F)(F)C(F)F)ncn2)C[C@@H]1N1CCCCC1=O [Example 94, 1-((3S,4S)-4-Amino-1-(6-(2,2,3,3-tetrafluoropropoxy)pyrimidin-4-yl)pyrrolidin-3-yl)piperidin-2-one trifluoroacetate] | 23.2
5 | CC(C)C(C)Oc1cc(N2C[C@H](N)[C@@H](N3CCCCC3=O)C2)ncn1 (stereo partly drawn) [Example 95, 1-((3S,4S)-4-Amino-1-(6-(3-methylbutan-2-yloxy)pyrimidin-4-yl)pyrrolidin-3-yl)piperidin-2-one trifluoroacetate] | 17.7
6 | COc1ccc2ncnc(N3C[C@H](N)[C@@H](N4CCCCC4=O)C3)c2c1 [Example 107, 1-((3S,4S)-4-amino-1-(6-methoxyquinazolin-4-yl)pyrrolidin-3-yl)piperidin-2-one] | 47

same assay, conditions: n-value given in brackets; read-out: DPP-IV IC50

Row | Compound | IC50 [µM]
7 | Cc1nc(-c2ccccc2)cc(N2C[C@H](N)[C@@H](N3CC(F)(F)CCC3=O)C2)n1 [Example 83, 1-((3S,4S)-4-amino-1-(2-methyl-6-phenylpyrimidin-4-yl)pyrrolidin-3-yl)-5,5-difluoropiperidin-2-one] | 0.0339
8 | N[C@H]1CN(c2ncnc(-c3ccccc3)n2)C[C@@H]1N1CC(F)(F)CCC1=O [Example 84, 1-((3S,4S)-4-amino-1-(4-phenyl-1,3,5-triazin-2-yl)pyrrolidin-3-yl)-5,5-difluoropiperidin-2-one trifluoroacetate] | 0.0387
9 | N[C@H]1CN(c2ncnc(-c3ccccc3)n2)C[C@@H]1N1CCCCC1=O [Example 85, 1-[(3S,4S)-4-Amino-1-(4-phenyl-[1,3,5]triazin-2-yl)-pyrrolidin-3-yl]-piperidin-2-one hydrochloride] | 0.0591
10 | COc1ccc(-c2cc(N3C[C@H](N)[C@@H](N4CCCCC4=O)C3)ncn2)cc1 [Example 86, 1-{(3S,4S)-4-Amino-1-[6-(4-methoxy-phenyl)-pyrimidin-4-yl]-pyrrolidin-3-yl}-piperidin-2-one hydrochloride] | 0.0553
11 | COc1ccc(-c2cc(N3C[C@H](N)[C@@H](N4CCCCC4=O)C3)ncn2)cn1 [Example 87, 1-{(3S,4S)-4-Amino-1-[6-(6-methoxy-pyridin-3-yl)-pyrimidin-4-yl]pyrrolidin-3-yl}-piperidin-2-one dihydrochloride] | 0.0386
12 | N[C@H]1CN(c2cc(Oc3cccc(F)c3)ncn2)C[C@@H]1N1CCCCC1=O [Example 88, 1-((3S,4S)-4-amino-1-(6-(3-fluorophenoxy)pyrimidin-4-yl)pyrrolidin-3-yl)piperidin-2-one] | 0.314
13 | CCCOc1cc(N2C[C@H](N)[C@@H](N3CCCCC3=O)C2)ncn1 [Example 89, 1-((3S,4S)-4-Amino-1-(6-propoxypyrimidin-4-yl)pyrrolidin-3-yl)piperidin-2-one trifluoroacetate] | 0.318
14 | CCC[C@H](C)Oc1cc(N2C[C@H](N)[C@@H](N3CCCCC3=O)C2)ncn1 [Example 90, 1-((3S,4S)-4-Amino-1-(6-((S)-pentan-2-yloxy)pyrimidin-4-yl)pyrrolidin-3-yl)piperidin-2-onetrifluoroacetate] | 1.03
15 | CS(=O)(=O)c1ccccc1S(=O)(=O)Oc1ccc2c(N3C[C@H](N)[C@@H](N4CCCCC4=O)C3)ncnc2c1 [Example 96, 4-((3S,4S)-3-amino-4-(2-oxopiperidin-1-Vl)pyrrolidin-1-yl)quinazolin-7-yl 2-(methylsulfonyl)benzenesulfonate] | 0.00199
16 | CS(=O)(=O)c1ccccc1S(=O)(=O)Oc1ccc2c(N3C[C@H](N)[C@@H](N4CC(F)(F)CCC4=O)C3)ncnc2c1 [Example 97, 4-((3S,4S)-3-amino-4-(5,5-difluoro-2-oxopiperidin-1-yl)pyrrolidin-1-yl)quinazolin-7-yl 2-(methylsulfonyl)benzenesulfonate] | < 0.001
17 | COc1ccc2c(N3C[C@H](N)[C@@H](N4CC(F)(F)CCC4=O)C3)ncnc2c1 [Example 98, 1-((3S,4S)-4-amino-1-(7-methoxyquinazolin-4-yl)pyrrolidin-3-yl)-5,5-difluoropiperidin-2-one] | 0.0342
18 | CCSc1ccc2c(N3C[C@H](N)[C@@H](N4CC(F)(F)CCC4=O)C3)ncnc2c1 [Example 99, 1-((3S,4S)-4-amino-1-(7-(ethylthio)quinazolin-4-yl)pyrrolidin-3-yl)-5,5-difluoropiperidin-2-one] | 0.0384
19 | CC(C)Oc1ccc2c(N3C[C@H](N)[C@@H](N4CC(F)(F)CCC4=O)C3)ncnc2c1 [Example 100, 1-((3S,4S)-4-amino-1-(7-isopropoxyquinazolin-4-yl)pyrrolidin-3-yl)-5,5-difluoropiperidin-2-one] | 0.0447
20 | N[C@H]1CN(c2ncnc3cc(Oc4ccccc4)ccc23)C[C@@H]1N1CC(F)(F)CCC1=O [Example 101, 1-((3S,4S)-4-amino-1-(7-phenoxyquinazolin-4-yl)pyrrolidin-3-yl)-5,5-difluoropiperidin-2-one] | 0.122
21 | N[C@H]1CN(c2ncnc3cc(Cl)ccc23)C[C@@H]1N1CCCCC1=O [Example 102, 1-[(3S,4S)-4-Amino-1-(7-chloro-quinazolin-4-yl)-pyrrolidin-3-yl]-piperidin-2-one hydrochloride] | 0.0614
22 | COc1ccc2c(N3C[C@H](N)[C@@H](N4CCCCC4=O)C3)ncnc2c1 [Example 103, 1-[(3S,4S)-4-Amino-1-(7-methoxy-quinazolin-4-yl)-pyrrolidin-3-yl]-piperidin-2-one hydrochloride] | 0.0261
23 | N[C@H]1CN(c2ncnc3ccc(Cl)cc23)C[C@@H]1N1CCCCC1=O [Example 104, 1-[(3S,4S)-4-Amino-1-(6-chloro-quinazolin-4-yl)-pyrrolidin-3-yl]-piperidin-2-one hydrochloride] | 0.132
24 | N[C@H]1CN(c2ncnc3cc(F)ccc23)C[C@@H]1N1CCCCC1=O [Example 105, 1-((3S,4S)-4-Amino-1-(7-fluoroquinazolin-4-yl)pyrrolidin-3-yl)piperidin-2-one trifluoroacetate] | 0.241
25 | COc1cc2ncnc(N3C[C@H](N)[C@@H](N4CCCCC4=O)C3)c2cc1Cl [Example 106, 1-((3S,4S)-4-Amino-1-(6-chloro-7-methoxyquinazolin-4-yl)pyrrolidin-3-yl)piperidin-2-one trifluoroacetate] | 0.0996
26 | COc1cccc2c(N3C[C@H](N)[C@@H](N4CCCCC4=O)C3)ncnc12 [Example 108, 1-((3S,4S)-4-Amino-1-(8-methoxyquinazolin-4-yl)pyrrolidin-3-yl)piperidin-2-one trifluoroacetate] | 0.175
27 | N[C@H]1CN(c2ncnc3c(F)cccc23)C[C@@H]1N1CCCCC1=O [Example 109, 1-((3S,4S)-Amino-1-(8-fluoroquinazolin-4-yl)pyrrolidin-3-yl)piperidin-2-one trifluoroacetate] | 0.11
28 | N[C@H]1CN(c2ncnc3cc(C(F)(F)F)ccc23)C[C@@H]1N1CCCCC1=O [Example 110, 1-((3S,4S)-4-amino-1-(7-(trifluoromethyl)quinazolin-4-yl)pyrrolidin-3-yl)piperidin-2-one] | 0.0472
29 | N[C@H]1CN(c2ncnc3cc(C4CCCC4)ccc23)C[C@@H]1N1CCCCC1=O [Example 111, 1-((3S,4S)-4-amino-1-(7-cyclopentylquinazolin-4-yl)pyrrolidin-3-yl)piperidin-2-one] | 0.228
30 | N[C@H]1CN(c2ncnc3cc(Oc4ccccc4)ccc23)C[C@@H]1N1CCCCC1=O [Example 113, 1-((3S,4S)-4-amino-1-(7-phenoxyquinazolin-4-yl)pyrrolidin-3-yl)piperidin-2-one] | 0.0725
31 | N[C@H]1CN(c2ncnc3cc(OCc4ccccc4)ccc23)C[C@@H]1N1CCCCC1=O [Example 114, 1-((3S,4S)-4-amino-1-(7-(benzyloxy)quinazolin-4-yl)pyrrolidin-3-yl)piperidin-2-one] | 0.109
32 | CC(C)Oc1ccc2c(N3C[C@H](N)[C@@H](N4CCCCC4=O)C3)ncnc2c1 [Example 115, 1-((3S,4S)-4-amino-1-(7-isopropoxyquinazolin-4-yl)pyrrolidin-3-yl)piperidin-2-one] | 0.0297
33 | CC(C)c1ccc2c(N3C[C@H](N)[C@@H](N4CCCCC4=O)C3)ncnc2c1 [Example 116, 1-((3S,4S)-4-amino-1-(7-isopropylquinazolin-4-yl)pyrrolidin-3-yl)piperidin-2-one] | 0.0559
34 | CCC(CC)c1ccc2c(N3C[C@H](N)[C@@H](N4CCCCC4=O)C3)ncnc2c1 [Example 117, 1-((3S,4S)-4-amino-1-(7-(pentan-3-yl)quinazolin-4-yl)pyrrolidin-3-yl)piperidin-2-one] | 0.206
35 | N#CCCc1ccc2c(N3C[C@H](N)[C@@H](N4CCCCC4=O)C3)ncnc2c1 [Example 118, 3-(4-((3S,4S)-3-amino-4-(2-oxopiperidin-1-yl)pyrrolidin-1-yl)quinazolin-7-yl)propanenitrile] | 0.0852
36 | N[C@H]1CN(c2ncnc3cc(OC4CCCC4)ccc23)C[C@@H]1N1CCCCC1=O [Example 119, 1-((3S,4S)-4-amino-1-(7-(cyclopentyloxy)quinazolin-4-yl)pyrrolidin-3-yl)piperidin-2-one] | 0.107
